Literature values as cited in patent US20050220913A1, “Novel in-expensive and efficient process for isolation of imperatorin, a potent inducible nitric oxide synthase inhibitor and anti-inflammatory drug candidate from Aegle marmelos Correa” (Council of Scientific and Industrial Research, priority 2004, published 2005).

Key:
[1] = system: HL-60 cells; conditions: Kawa et al. 2000
[2] = system: inducible nitric oxide synthase (iNOS); conditions: imperatorin isolated from Saposhnikovia divaricata; Yang et al. 1999
[3] = system: human promyelocytic leukaemia, HL-60 cells; conditions: at micromolar concentrations; imperatorin from roots of Angelica dahurica; Hyun-Ock et al. 2002

**Q.** With `CC(C)=CCOc1c2occc2cc2ccc(=O)oc12` [Imperatorin] as the molecule, how does the “activity of HL-60 cells by nitro blue tetrazolium (NBT) method” value [1] read?
**A.** Its value is “strong activity”.

**Q.** And the “IC50 value for inhibition of nitrite production” value [2]?
**A.** The value was 17.3 µg/mL.

**Q.** What about the “induction of apoptosis of HL-60 cells” value [3] of the same molecule?
**A.** The value was “able to trigger apoptosis of HL-60 cells”.
